# Experimental data published in patent US20080194732A1, “Optically transparent polymer with antibiofouling properties” (priority 2007, published 2008).
# How the values were obtained:
# [1] = Decomposition point temperature by thermal gravimetric analysis; type: physicochemical
# Experimental: The decomposition point temperature, or the temperature at which a material burns or decomposes, of the antifoulants must be above the processing temperature of the polymer. As determined by thermal gravimetric analysis, the decomposition point temperatures are 210° C. for capsaicin, 208° C. for Diuron, and 196° C. for Irgarol® 1051. The processing temperatures for melt extrusion are: for PMMA, 125° C.; for CBDO terephthalates (Cycloshield®), 130° C., and for polycarbonate, 190° C. It is expected that the antibiofoulants will be entrained in the polymer matrices. This entrainment is a key to the antifouling properties of the coverglasses or windows as it is the chemical nature of the antibiofoulants that provides the antifouling properties. In a typical matrix with entrained compounds there will always be some of these compounds exposed at the surface. Further, depending on the nature of the matrix, there will also be some diffusion rate of the compounds throughout the material.
# [2] = Leaching rate of algaecides from PMMA substrates in water, by UV spectroscopy; type: physicochemical; details: for leach rate: deionized water, 35 days; for leaching into test tanks: after five months, up to the limit of the spectrometer
# Experimental: The effective lifetimes of the antifoulant-containing coverglass materials were tested by studying the leaching rate of the algaecides from PMMA substrates in water. The UV absorption bands of Diuron (at 254 nm) and Irgarol® (at 234 nm) were used to detect their presence in aqueous solutions. To study the leaching rate, duplicate samples of the highest concentration of algaecide in PMMA (4% by weight for Diuron and 0.5% for Irgarol®; three samples each) were placed in separate closed containers of ultra-pure deionized water (18 MΩ purity). After 35 days, the concentration of algaecide that had leached into the water was determined by UV spectroscopy using a standard Beer-Lambert law relationship:
# Where A is the absorbance of the compound, ε is the extinction coefficient associated with the compound, l is the cell path length, and C is the concentration of the compound. By establishing a suitable set of calibration curves, ε can be calculated from empirical results. A set of calibration curves for both Diuron and Irgarol® was established from 10^−3 M to 10^−7 M in aqueous solution. A Mineral Light Short Wave UV source was used to provide the input light, while the absorption of the samples was collected with the Ocean Optics S2000 previously discussed. Aqueous samples were placed into closed quartz cuvettes for analysis. For the UV measurements the Ocean Optics spectrometer was equipped with a UV transmissive fiber optic cable and spectra collected from 200 nm to 575 nm. Absorbance was measured at the previously mentioned values. A reference sample of ultra-pure deionized water was used for this study.
# The study determined that the lower limit of the spectrometer was approximately 10^−5 M concentration for these algaecides. […] That compares favorably to the reported leach rate of 4.04 μg cm^−2 days^−1 reported for leaching of Irgarol® from marine paints.
# Chlorella capsulata = test: Algae growth on antifoulant-loaded PMMA samples suspended 35 days in a salt water aquarium, read by optical transmission; type: cell-based; details: 35 days in algae tank; for effect on algae growth: antifoulant in solvent-cast PMMA sheet
# Experimental: To test the antifoulant properties of the capsaicin-loaded PMMA and the mixtures of algaecides and polymers, a marine environment was established. Tests were performed in a salt water environment as opposed to a freshwater environment due to the aggressive growth of salt water plants and animals. The supposition is that if the antifoulant-doped coverglass works in a salt water environment, it will work in a fresh water environment. Using a standard 5-gallon aquarium, the salt water environment was set up using a commercially available sea salt solution (INSTANT OCEAN®). The solution was prepared to have a specific gravity of 1.020-1.023, a pH of ˜8.3, and a water temperature of about 27° C. A small aliquot of Chlorella capsulata (a known aggressive biofouling algae) was obtained from the UTEX Culture Collection of Algae and grown in the aquarium. Growth of the algae was further enhanced using an algae growth promoter (KENT PRO-CULTURE). After four weeks of growth, a dense algae growth was present in the aquarium.
# PMMA/capsaicin samples of varying capsaicin concentration were prepared as previously described. The samples to be tested were cut into 25×25 mm squares and suspended in the aquarium. To ensure that no location-dependent effects were incorporated into the study, the samples were rotated every few days. The aquarium lights and air system were left running at all times. The samples were left in place for 35 days.
# After 35 days, the samples were removed from the tank and rinsed carefully with deionized water to remove any adhering salts. The algae coated samples were then tested for their optical transmission properties using the Ocean Optics SD2000 UV-Vis spectrometer. To properly hold and test the samples, samples wetted with a couple of drops of deionized water were placed in between two standard 1″×3″ microscope slides. […] In fact, algae grew better on the samples with a higher concentration of capsaicin.
# Algae growth studies similar to that conducted for the capsaicin-loaded PMMA were then conducted for the Diuron/PMMA and Irgarol®/PMMA samples. […]
# [3] = leaching from marine paints, reported value; cited from earlier work
Structure (SMILES),decomposition point temperature [1] [°C],"leach rate ([2]; 4% by weight Diuron in PMMA, no absorption at 254 nm)",leaching into test tanks [2],effect on algae growth (Chlorella capsulata),"leach rate ([2]; 0.5% Irgarol in PMMA, no absorption at 234 nm) [μg cm^−2 day^−1]",reported leach rate from marine paints [3] [μg cm^−2 days^−1],loss of visible transmission after algae growth (Chlorella capsulata; PMMA/capsaicin samples of varying capsaicin concentration)
"CN(C)C(=O)Nc1ccc(Cl)c(Cl)c1 [Diuron, 3-(3,4-dichlorophenyl)-1,1-dimethylurea]",208,below 1.67 μg cm^−2 days^−1,no evidence was found,no sign of algae growth,,,
"CSc1nc(NC2CC2)nc(NC(C)(C)C)n1 [Irgarol®, N-(tert-butyl)-N′-cyclopropyl-6-(methylthio)-1,3,5-triazine-2,4-diamine]",196,,no evidence was found,,< 1.81,4.04,
COc1cc(CNC(=O)CCCC/C=C/C(C)C)ccc1O [capsaicin],210,,,no effect in decreasing algae growth,,,"the greater the concentration of capsaicin, the greater was the loss of transmission"
